Source: US12691089B2, “Stable levothyroxine compositions in aprotic polar solvents” (Xeris Pharmaceuticals, Inc., priority 2022, dated 2026)
Blank lines part the entries; values can stand above or below the compound they belong to.

Columns and labels:
[1] = cited from earlier work
[2] = Accelerated stability of 5 mg/mL levothyroxine in (acidified) DMSO: discoloration and RP-HPLC
Protocol: To attempt to overcome these discoloration and degradation problems, levothyroxine solutions were prepared with either the free acid or the sodium salt of levothyroxine dissolved in acidified DMSO, at a levothyroxine sodium concentration of 5 mg/mL. To prepare acidified DMSO solvents, DMSO was acidified with 0-10 mM H2SO4 (from a 1.0 N H2SO4 stock solution), and samples were stored in 2 mL glass vials (0.5 mL fill volume per vial) and stored at 45° C. upright for 9 days for an accelerated stability analysis without any secondary packaging (e.g., foil pouch). Samples were then photographed (to examine discoloration) and examined via reverse phase HPLC (to examine levothyroxine chemical stability), comparing day 0 samples to day 9 samples (vs. a sample of each formulation that was frozen and held at −20° C. as a “time 0” control).
To determine if the discoloration observed with these formulations correlated with levothyroxine chemical degradation, samples of each vial were assessed via reverse phase HPLC (RP-HPLC).

[3] = Solubility of levothyroxine sodium in DMSO; assay type: physicochemical; settings: organic solvent or mixture
Source text: However, direct dissolution of levothyroxine sodium in DMSO (with no added excipients) caused rapid visual discoloration and chemical degradation (where the extent of discoloration generally correlates with degradation). […] Additionally, the chemical degradation appeared to be associated with the discoloration of the solution that was observed.

[4] = Storage stability of levothyroxine formulations in acidified DMSO (RP-HPLC T4/T3); assay type: physicochemical; settings: 10 mg/mL in DMSO
Protocol: Based on the results shown above, formulations of levothyroxine sodium were prepared at an acid concentration that promoted chemical stability and a moisture content of at least 4% (w/w). […] The overall moisture content of the formulation was ~5% when prepared using 1.0 N H2SO4. The moisture content of this formulation was due almost entirely to the added sulfuric acid (with a minor contribution from the trehalose dihydrate), which at 26 mM (from a 1.0 N (0.5 M) stock solution) results in a moisture content~5% (w/w). When prepared using concentrated acid (e.g., 10 N), the overall moisture content of the formulation could be reduced to about ~1% without any significant impact on storage stability.
An example of the stability that can be achieved using this formulation approach at multiple temperatures for up to 6 months is shown in Table 1, which represents the purity of T4 (levothyroxine sodium) in the 10 mg/mL, 26-28 mM acid DMSO formulations described above, over time at various storage temperatures. Results shown are measurements of T4 vs. T3 (triiodothyronine, the main degradation product of T4), determined as described above via RP-HPLC. In this table, the higher the percentage of T4 and the lower the percentage of T3, the less degradation observed in the levothyroxine formulations over time.

Compound: N[C@@H](Cc1cc(I)c(Oc2cc(I)c(O)c(I)c2)c(I)c1)C(=O)O [levothyroxine]
- solubility in water [1]: ≤ 0.1 mg/mL

- degradation by RP-HPLC ([2]; 5 mg/mL in DMSO, 0-2 mM H2SO4, 9 days at 45° C.): extensive degradation
- discoloration ([2]; 5 mg/mL in DMSO, 0-10 mM H2SO4, day 0): did not show significant discoloration
- discoloration compared to levothyroxine sodium salt ([2]; 5 mg/mL in DMSO, all concentrations of acid, 9 days at 45° C.): lower amount of discoloration
- sulfuric acid concentration necessary to significantly enhance chemical stability ([2]; 5 mg/mL solution in DMSO, accelerated stability testing): ~ 10 mM
Compound: N[C@@H](Cc1cc(I)c(Oc2cc(I)c(O)c(I)c2)c(I)c1)C(=O)O [levothyroxine free acid]

- discoloration ([2]; 5 mg/mL in DMSO, 10 mM H2SO4, 9 days at 45° C.): no significant discoloration
- solubility [3]: ≥ 30 mg/mL
- chemical stability (T4 peak purity) vs acid concentration ([4]; <26 mM sulfuric acid): extensive chemical degradation
- chemical stability (T4 peak purity) vs acid concentration ([4]; above approximate 26 mM acid): chemical stability essentially plateaus
Compound: N[C@@H](Cc1cc(I)c(Oc2cc(I)c(O)c(I)c2)c(I)c1)C(=O)O [levothyroxine sodium]
- discoloration ([2]; 5 mg/mL in DMSO, H2SO4 below 4 mM, day 0): degradation-associated discoloration fairly quickly
